In ChEMBL document CHEMBL1201862, “PubChem BioAssay data set” (2004):
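Grown in 96-well plates, cells were treated for 48 hours with each compound at five concentrations. Insufficient inhibition: endpoint recorded as highest concentration tested. GI50: concentration for 50% inhibition of growth.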 Active and inactive are the calls of the source. Cut-off read from the data, not from the text of the source: active = GI50 up to about 1.1 µM and inactive = higher.

Key:
Assay in all cases: NCI tumour cell line growth inhibition, 48 h
OVCAR-3 = test system: OVCAR-3
786-0 = test system: 786-0
LOX IMVI = test system: LOX IMVI
KM12 = test system: KM12
NCI-H23 = test system: NCI-H23
SK-MEL-2 = test system: SK-MEL-2
HCC 2998 = test system: HCC 2998
A498 = test system: A498
SF-268 = test system: SF-268
U-251 = test system: U-251
SN12C = test system: SN12C
UACC-62 = test system: UACC-62
SF-295 = test system: SF-295
UO-31 = test system: UO-31
COLO 205 = test system: COLO 205
HCT-116 = test system: HCT-116
ACHN = test system: ACHN

Row | Structure (SMILES) | GI50 (OVCAR-3) | GI50 (786-0) | GI50 (LOX IMVI) | GI50 (KM12) | GI50 (NCI-H23) | GI50 (SK-MEL-2) | GI50 (HCC 2998) | GI50 (A498) | GI50 (SF-268) | GI50 (U-251) | GI50 (SN12C) | GI50 (UACC-62) | GI50 (SF-295) | GI50 (UO-31) | GI50 (COLO 205) | GI50 (HCT-116) | GI50 (ACHN)
1 | CC1C[C@@H]2C(=O)NC(=O)[C@@H]2c2c1c1ccccc1n2C (stereo not given in full) | > 100 µM (inactive) | > 100 µM (inactive) | > 100 µM (inactive) | > 100 µM (inactive) | > 100 µM (inactive) | > 100 µM (inactive) | > 100 µM (inactive) | > 100 µM (inactive) | > 100 µM (inactive) | > 100 µM (inactive) | > 100 µM (inactive) | > 100 µM (inactive) | > 100 µM (inactive) | > 100 µM (inactive) | > 100 µM (inactive) |  | 
2 | C=C1C(=O)c2cc3c(cc2C(c2cc(OC)c(OC)c(OC)c2)[C@@H]1C(=O)O)OCO3 (stereo not given in full) | 23.2 µM (inactive) | 37 µM (inactive) | 43.6 µM (inactive) | 44.5 µM (inactive) | 57.7 µM (inactive) |  | > 100 µM (inactive) | 32.6 µM (inactive) |  | 49.9 µM (inactive) | 43.1 µM (inactive) | 27 µM (inactive) | 38.3 µM (inactive) | 58.6 µM (inactive) | 39.3 µM (inactive) | 48.4 µM (inactive) | > 100 µM (inactive)
3 | CCN(CC)c1ccc2cc3ccc(N(CC)CC)cc3[o+]c2c1 | 0.8 µM (active) | 2.97 µM (inactive) | 0.6 µM (active) | 0.51 µM (active) | 0.946 µM (active) | 1.34 µM (inactive) | 4.39 µM (inactive) | 14.6 µM (inactive) | 1.29 µM (inactive) | 0.624 µM (active) | 0.832 µM (active) | 1.71 µM (inactive) | 4.48 µM (inactive) | 2.28 µM (inactive) | 0.798 µM (active) | 0.29 µM (active) | 1.26 µM (inactive)
4 | Cc1nc2ccncc2[nH]1 | > 100 µM (inactive) | > 100 µM (inactive) | > 100 µM (inactive) |  | > 100 µM (inactive) | > 100 µM (inactive) | > 100 µM (inactive) | > 100 µM (inactive) | > 100 µM (inactive) | > 100 µM (inactive) | > 100 µM (inactive) | > 100 µM (inactive) | > 100 µM (inactive) | > 100 µM (inactive) | > 100 µM (inactive) | > 100 µM (inactive) | > 100 µM (inactive)
5 | COC(=O)CCC(NC(=S)N/N=C/c1ccccn1)C(=O)OC (stereo not given) | > 100 µM (inactive) | > 100 µM (inactive) | > 100 µM (inactive) | > 100 µM (inactive) | > 100 µM (inactive) | > 100 µM (inactive) | > 100 µM (inactive) | > 100 µM (inactive) | > 100 µM (inactive) | > 100 µM (inactive) | > 100 µM (inactive) | > 100 µM (inactive) | > 100 µM (inactive) | > 100 µM (inactive) | > 100 µM (inactive) | > 100 µM (inactive) | > 100 µM (inactive)
6 | N#Cc1cccc(N2C(=O)c3ccc(C(=O)c4ccc5c(c4)C(=O)N(c4cccc(C#N)c4)C5=O)cc3C2=O)c1 | > 100 µM (inactive) | 64.4 µM (inactive) | > 100 µM (inactive) | > 100 µM (inactive) | > 100 µM (inactive) | > 100 µM (inactive) |  | > 100 µM (inactive) | > 100 µM (inactive) | 35.8 µM (inactive) | > 100 µM (inactive) | > 100 µM (inactive) | > 100 µM (inactive) | > 100 µM (inactive) | > 100 µM (inactive) | > 100 µM (inactive) | 
7 | NC(CCCC(N)P(=O)(O)O)P(=O)(O)O (stereo not given) | > 100 µM (inactive) | > 100 µM (inactive) | > 100 µM (inactive) | > 100 µM (inactive) | > 100 µM (inactive) |  | > 100 µM (inactive) | > 100 µM (inactive) |  | > 100 µM (inactive) | > 100 µM (inactive) | > 100 µM (inactive) | > 100 µM (inactive) | > 100 µM (inactive) | > 100 µM (inactive) | > 100 µM (inactive) | > 100 µM (inactive)
8 | COc1ccc(/C(=N/NC(N)=O)C2(O)C(=O)Nc3ccc([N+](=O)[O-])cc32)cc1 (stereo not given) | 18.1 µM (inactive) | 15.7 µM (inactive) |  | 22.6 µM (inactive) | 17 µM (inactive) | 21.6 µM (inactive) | 37.3 µM (inactive) | 29.2 µM (inactive) | 18.5 µM (inactive) | > 10 µM (inactive) | > 10 µM (inactive) | 20 µM (inactive) |  | 20.5 µM (inactive) | 23 µM (inactive) | 14.9 µM (inactive) | 16.6 µM (inactive)
